Source: the supplement of paper PMC10307832

What was measured:
Test in all cases: relative viability (nuclei count vs DMSO), 5 days (fraction); higher = more cells survive
ChaGo-K-1 = tested on: ChaGo-K-1
Procedure, shortened: (§1)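 Dosing by pin tool came one day after lung cancer cell lines were seeded in 1536-well plates, using either one drug or a fixed anchor-drug dose plus five library-drug doses (not always all listed) in √10 steps. After 5 days, nuclei were counted on 4× images. Relative viability is treated-well nuclei count divided by vehicle-well nuclei count, and values are medians of duplicate plates.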

EKVX = tested on: EKVX
Procedure, shortened: as §1

EMC-BAC-2 = tested on: EMC-BAC-2
Procedure, shortened: as §1

EPLC-272H = tested on: EPLC-272H
Procedure, shortened: as §1

HCC-78 = tested on: HCC-78
Procedure, shortened: as §1

HCC-827 = tested on: HCC-827
Procedure, shortened: as §1

LCLC-103H = tested on: LCLC-103H
Procedure, shortened: as §1

LK-2 = tested on: LK-2
Procedure, shortened: as §1

LU99A = tested on: LU99A
Procedure, shortened: as §1

LXF-289 = tested on: LXF-289
Procedure, shortened: as §1

NCI-H1666 = tested on: NCI-H1666
Procedure, shortened: as §1

NCI-H1975 = tested on: NCI-H1975
Procedure, shortened: as §1

NCI-H2126 = tested on: NCI-H2126
Procedure, shortened: as §1

NCI-H2342 = tested on: NCI-H2342
Procedure, shortened: as §1

NCI-H23 = tested on: NCI-H23
Procedure, shortened: as §1

NCI-H2405 = tested on: NCI-H2405
Procedure, shortened: as §1

NCI-H322M = tested on: NCI-H322M
Procedure, shortened: as §1

PC-14 = tested on: PC-14
Procedure, shortened: as §1

RERF-LC-KJ = tested on: RERF-LC-KJ
Procedure, shortened: as §1

SK-LU-1 = tested on: SK-LU-1
Procedure, shortened: as §1

SW 1573 = tested on: SW 1573
Procedure, shortened: as §1

SW 900 = tested on: SW 900
Procedure, shortened: as §1

## O=c1cc(N2CCOCC2)oc2c(-c3cccc4c3sc3ccccc34)cccc12 + O=C(c1cc(Cc2n[nH]c(=O)c3ccccc23)ccc1F)N1CCN(C(=O)C2CC2)CC1 [Olaparib] (partner 8 µM)
ChaGo-K-1; first compound 0.01 µM
  relative viability: 0.421
ChaGo-K-1; first compound 0.03162 µM
  relative viability: 0.439
ChaGo-K-1; first compound 0.1 µM
  relative viability: 0.434
ChaGo-K-1; first compound 0.3162 µM
  relative viability: 0.447
ChaGo-K-1; first compound 1 µM
  relative viability: 0.447
EKVX; first compound 0.01 µM
  relative viability: 0.769
EKVX; first compound 0.03162 µM
  relative viability: 0.807
EKVX; first compound 0.1 µM
  relative viability: 1.03
EKVX; first compound 0.3162 µM
  relative viability: 0.851
EKVX; first compound 1 µM
  relative viability: 0.891
EMC-BAC-2; first compound 0.01 µM
  relative viability: 0.486
EMC-BAC-2; first compound 0.03162 µM
  relative viability: 0.507
EMC-BAC-2; first compound 0.1 µM
  relative viability: 0.548
EMC-BAC-2; first compound 0.3162 µM
  relative viability: 0.412
EMC-BAC-2; first compound 1 µM
  relative viability: 0.489
EPLC-272H; first compound 0.01 µM
  relative viability: 0.761
EPLC-272H; first compound 0.03162 µM
  relative viability: 0.934
EPLC-272H; first compound 0.1 µM
  relative viability: 0.848
EPLC-272H; first compound 0.3162 µM
  relative viability: 0.776
EPLC-272H; first compound 1 µM
  relative viability: 0.824
HCC-78; first compound 0.01 µM
  relative viability: 0.783
HCC-78; first compound 0.03162 µM
  relative viability: 0.687
HCC-78; first compound 0.1 µM
  relative viability: 0.644
HCC-78; first compound 0.3162 µM
  relative viability: 0.835
HCC-78; first compound 1 µM
  relative viability: 0.828
HCC-827; first compound 0.01 µM
  relative viability: 0.695
HCC-827; first compound 0.03162 µM
  relative viability: 0.609
HCC-827; first compound 0.1 µM
  relative viability: 0.623
HCC-827; first compound 0.3162 µM
  relative viability: 0.641
HCC-827; first compound 1 µM
  relative viability: 0.642
LCLC-103H; first compound 0.01 µM
  relative viability: 0.718
LCLC-103H; first compound 0.03162 µM
  relative viability: 0.786
LCLC-103H; first compound 0.1 µM
  relative viability: 0.771
LCLC-103H; first compound 0.3162 µM
  relative viability: 0.707
LCLC-103H; first compound 1 µM
  relative viability: 0.749
LK-2; first compound 0.01 µM
  relative viability: 0.802
LK-2; first compound 0.03162 µM
  relative viability: 0.554
LK-2; first compound 0.1 µM
  relative viability: 0.847
LK-2; first compound 0.3162 µM
  relative viability: 0.722
LK-2; first compound 1 µM
  relative viability: 0.737
LU99A; first compound 0.01 µM
  relative viability: 0.259
LU99A; first compound 0.03162 µM
  relative viability: 0.273
LU99A; first compound 0.1 µM
  relative viability: 0.277
LU99A; first compound 0.3162 µM
  relative viability: 0.27
LU99A; first compound 1 µM
  relative viability: 0.278
LXF-289; first compound 0.01 µM
  relative viability: 1.01
LXF-289; first compound 0.03162 µM
  relative viability: 1.08
LXF-289; first compound 0.1 µM
  relative viability: 1.08
LXF-289; first compound 0.3162 µM
  relative viability: 1.03
LXF-289; first compound 1 µM
  relative viability: 1.11
NCI-H1666; first compound 0.01 µM
  relative viability: 0.753
NCI-H1666; first compound 0.03162 µM
  relative viability: 0.738
NCI-H1666; first compound 0.1 µM
  relative viability: 0.777
NCI-H1666; first compound 0.3162 µM
  relative viability: 0.684
NCI-H1666; first compound 1 µM
  relative viability: 0.692
NCI-H1975; first compound 0.01 µM
  relative viability: 0.834
NCI-H1975; first compound 0.03162 µM
  relative viability: 0.785
NCI-H1975; first compound 0.1 µM
  relative viability: 0.915
NCI-H1975; first compound 0.3162 µM
  relative viability: 0.82
NCI-H1975; first compound 1 µM
  relative viability: 0.809
NCI-H2126; first compound 0.01 µM
  relative viability: 0.887
NCI-H2126; first compound 0.03162 µM
  relative viability: 0.91
NCI-H2126; first compound 0.1 µM
  relative viability: 0.938
NCI-H2126; first compound 0.3162 µM
  relative viability: 0.899
NCI-H2126; first compound 1 µM
  relative viability: 0.918
NCI-H2342; first compound 0.01 µM
  relative viability: 0.418
NCI-H2342; first compound 0.03162 µM
  relative viability: 0.434
NCI-H2342; first compound 0.1 µM
  relative viability: 0.438
NCI-H2342; first compound 0.3162 µM
  relative viability: 0.457
NCI-H2342; first compound 1 µM
  relative viability: 0.428
NCI-H23; first compound 0.01 µM
  relative viability: 0.399
NCI-H23; first compound 0.03162 µM
  relative viability: 0.335
NCI-H23; first compound 0.3162 µM
  relative viability: 0.344
NCI-H23; first compound 1 µM
  relative viability: 0.343
NCI-H2405; first compound 0.01 µM
  relative viability: 0.952
NCI-H2405; first compound 0.03162 µM
  relative viability: 0.912
NCI-H2405; first compound 0.1 µM
  relative viability: 0.945
NCI-H2405; first compound 0.3162 µM
  relative viability: 0.832
NCI-H2405; first compound 1 µM
  relative viability: 0.93
NCI-H322M; first compound 0.01 µM
  relative viability: 0.688
NCI-H322M; first compound 0.03162 µM
  relative viability: 0.827
NCI-H322M; first compound 0.3162 µM
  relative viability: 0.73
NCI-H322M; first compound 1 µM
  relative viability: 0.725
PC-14; first compound 0.01 µM
  relative viability: 0.285
PC-14; first compound 0.03162 µM
  relative viability: 0.21
PC-14; first compound 0.1 µM
  relative viability: 0.325
PC-14; first compound 0.3162 µM
  relative viability: 0.282
PC-14; first compound 1 µM
  relative viability: 0.269
RERF-LC-KJ; first compound 0.01 µM
  relative viability: 1.03
RERF-LC-KJ; first compound 0.03162 µM
  relative viability: 0.979
RERF-LC-KJ; first compound 0.1 µM
  relative viability: 0.965
RERF-LC-KJ; first compound 0.3162 µM
  relative viability: 0.703
RERF-LC-KJ; first compound 1 µM
  relative viability: 0.893
SK-LU-1; first compound 0.01 µM
  relative viability: 0.434
SK-LU-1; first compound 0.03162 µM
  relative viability: 0.447
SK-LU-1; first compound 0.1 µM
  relative viability: 0.387
SK-LU-1; first compound 0.3162 µM
  relative viability: 0.52
SK-LU-1; first compound 1 µM
  relative viability: 0.51
SW 1573; first compound 0.01 µM
  relative viability: 0.491
SW 1573; first compound 0.03162 µM
  relative viability: 0.446
SW 1573; first compound 0.1 µM
  relative viability: 0.447
SW 1573; first compound 0.3162 µM
  relative viability: 0.441
SW 1573; first compound 1 µM
  relative viability: 0.466
SW 900; first compound 0.03162 µM
  relative viability: 0.918
SW 900; first compound 0.1 µM
  relative viability: 0.794
SW 900; first compound 0.3162 µM
  relative viability: 0.719
SW 900; first compound 1 µM
  relative viability: 0.572
